# Assay results reported in ChEMBL document CHEMBL4033619, “Autophagy antagonizes apoptosis induced by flavan enantiomers from Daphne giraldii in hepatic carcinoma cells in vitro” (Eur J Med Chem, 2017).
# Test system: A549
# Experiment: Growth inhibition of human A549 cells after 48 hrs by MTT assay
# Type: functional, cell-based
row,SMILES,growth inhibition (GI)
1,CC(C)=CCc1c(C2CCc3ccc(O)cc3O2)ccc(O)c1O (racemic),Dose-dependent effect
2,CC1(C)C=Cc2c(C3CCc4ccc(O)cc4O3)ccc(O)c2O1 (racemic),Dose-dependent effect
3,CC1(C)CCc2c(C3CCc4ccc(O)cc4O3)ccc(O)c2O1 (racemic),Dose-dependent effect

# Test system: MCF7
# Experiment: Cytotoxicity against human MCF7 cells by MTT assay
# Type: functional, cell-based
row,SMILES,IC50 [µM]
1,CC(C)=CCc1c(C2CCc3ccc(O)cc3O2)ccc(O)c1O (racemic),> 100
2,CC1(C)C=Cc2c(C3CCc4ccc(O)cc4O3)ccc(O)c2O1 (racemic),> 100
3,CC1(C)CCc2c(C3CCc4ccc(O)cc4O3)ccc(O)c2O1 (racemic),> 100

# Test system: HepG2
# Experiment: Cytotoxicity against human HepG2 cells by MTT assay
# Type: functional, cell-based
row,SMILES,IC50 [µM]
1,CC(C)=CCc1c(C2CCc3ccc(O)cc3O2)ccc(O)c1O (racemic),> 100
2,CC1(C)C=Cc2c(C3CCc4ccc(O)cc4O3)ccc(O)c2O1 (racemic),92.8
3,CC1(C)CCc2c(C3CCc4ccc(O)cc4O3)ccc(O)c2O1 (racemic),> 100

# Test system: MCF7
# Experiment: Growth inhibition of human MCF7 cells after 48 hrs by MTT assay
# Type: functional, cell-based
row,SMILES,growth inhibition (GI)
1,CC(C)=CCc1c(C2CCc3ccc(O)cc3O2)ccc(O)c1O (racemic),Dose-dependent effect
2,CC1(C)C=Cc2c(C3CCc4ccc(O)cc4O3)ccc(O)c2O1 (racemic),Dose-dependent effect
3,CC1(C)CCc2c(C3CCc4ccc(O)cc4O3)ccc(O)c2O1 (racemic),Dose-dependent effect

# Test system: HepG2
# Experiment: Growth inhibition of human HepG2 cells after 48 hrs by MTT assay
# Type: functional, cell-based
row,SMILES,growth inhibition (GI)
1,CC(C)=CCc1c(C2CCc3ccc(O)cc3O2)ccc(O)c1O (racemic),Dose-dependent effect
2,CC1(C)C=Cc2c(C3CCc4ccc(O)cc4O3)ccc(O)c2O1 (racemic),Dose-dependent effect
3,CC1(C)CCc2c(C3CCc4ccc(O)cc4O3)ccc(O)c2O1 (racemic),Dose-dependent effect

# Test system: Hep 3B2
# Experiment: Cytotoxicity against human Hep3B cells by MTT assay
# Type: functional, cell-based
row,SMILES,IC50 [µM]
1,CC(C)=CCc1c(C2CCc3ccc(O)cc3O2)ccc(O)c1O (racemic),81.2
2,CC1(C)C=Cc2c(C3CCc4ccc(O)cc4O3)ccc(O)c2O1 (racemic),57.4
3,CC1(C)CCc2c(C3CCc4ccc(O)cc4O3)ccc(O)c2O1 (racemic),51

# Test system: Hep 3B2
# Experiment: Growth inhibition of human Hep3B cells after 48 hrs by MTT assay
# Type: functional, cell-based
row,SMILES,growth inhibition (GI)
1,CC(C)=CCc1c(C2CCc3ccc(O)cc3O2)ccc(O)c1O (racemic),Dose-dependent effect
2,CC1(C)C=Cc2c(C3CCc4ccc(O)cc4O3)ccc(O)c2O1 (racemic),Dose-dependent effect
3,CC1(C)CCc2c(C3CCc4ccc(O)cc4O3)ccc(O)c2O1 (racemic),Dose-dependent effect

# Test system: A549
# Experiment: Cytotoxicity against human A549 cells by MTT assay
# Type: functional, cell-based
row,SMILES,IC50 [µM]
1,CC(C)=CCc1c(C2CCc3ccc(O)cc3O2)ccc(O)c1O (racemic),> 100
2,CC1(C)C=Cc2c(C3CCc4ccc(O)cc4O3)ccc(O)c2O1 (racemic),> 100
3,CC1(C)CCc2c(C3CCc4ccc(O)cc4O3)ccc(O)c2O1 (racemic),> 100
